Counter-ions that a name gives are not always drawn.

The values that follow come from US8921416B2, “Dronedarone solid dispersion and preparation method thereof” (Jiangsu Hengrui Medicine Co., Ltd., priority 2010, dated 2014).

Data set [1] is described as follows: 24 h solubility of solid dispersions in PBS pH6.8. It is filed as physicochemical. Particulars: 37 °C, pH 6.8, aqueous buffer, thermodynamic from solid. On the procedure:
The weight ratio of the drug to the carrier was 1:5. Different hydrophilic polymeric carrier materials were selected from the group consisting of polyethylene glycol 6000, poloxamer 188, PVP K30, Klucel® EF, Plasdone® S-630, mannitol and combinations thereof respectively. 12 parts by weight of dichloromathane were added into the drug and carrier mixture, and was dissolved by stirring. Then the solution was transferred to a vacuum oven, maintained at 55° C., dried under reduced pressure for 48 h. Then the dry mass was crushed with a 100 mesh sieve, thereby the solid dispersion of dronedarone was obtained. The solubilities of the solid dispersion in the phosphate buffered saline (PBS) at pH6.8 were measured as follows.
24 h Solubility Determination: aliquots of the prepared solid dispersion were added into a 100 ml conical flask respectively. Then 50 ml PBS pH6.8 were added. The conical flask was sealed and placed in a thermostatic waterbath shaker and shaked at a set temperature of 37° C. for 24 h. After 24 hours, 10 mL of the solution were taken and filtrated. The initial 4 mL of the filtrate were abandoned and the subsequent filtrate were taken and diluted with PBS pH6.8 to a corresponding folds. The UV absorbance at 290 nm was measured with a UV spectrophotometer. Then the drug solubilities were calculated.

The conditions of data set [2]: pH=7; cited from earlier work.

The term solubility denotes how much of the substance goes into solution per volume. Take `CCCCc1oc2ccc(NS(C)(=O)=O)cc2c1C(=O)c1ccc(OCCCN(CCCC)CCCC)cc1` [Dronedarone hydrochloride]: the solubility at 24 h in data set [1] was 12 µg/mL.
In the case of `CCCCc1oc2ccc(NS(C)(=O)=O)cc2c1C(=O)c1ccc(OCCCN(CCCC)CCCC)cc1` [dronedarone, N-(2-Butyl-3-(4-(3-(dibutylamino)propoxy)benzoyl)-5-benzofuranyl)methanesulfonamide], in data set [2], the “solubility in an aqueous solution” value is given as “about 10 μg/ml”.
